# Columns and labels:
# Type in all cases: in vivo, mouse
# 5×FAD Tg mice [1] = assay: Tau phosphorylation in hippocampus of 5×FAD Tg mice; conditions: 0.1 mg/kg body wt/2 d intranasal, 30 d
# Protocol: FIG. 22 (A-B). Intranasal delivery of wtTIDM, but not mTIDM, peptide decreases the phosphorylation of tau in the hippocampus of Tg mice. […] B) Bands were scanned and values (P-Tau/Tau) presented as relative to non-Tg control. Results were analyzed by two-sample t-tests.
# B6SJL-Tg (APPSwFlLon,PSEN1*M146L*L286V) 6799Vas/J transgenic (5×FAD or termed here as Tg) mice were purchased from Jackson Laboratories (Bar Harbor, ME). […] Briefly, TIDM peptides were dissolved in 5 μl normal saline, mice were hold in supine position and saline was delivered into one nostril using a pipetman.
# 5×FAD Tg mice [2] = assay: Barnes maze and T maze in 5×FAD Tg mice
# Excerpt: FIG. 6 (A-N). Intranasal delivery of wtTIDM, but not mTIDM, peptide inhibits neuronal apoptosis in vivo in the hippocampus and improves memory and learning in Tg mice. […] After 30 d of treatment, mice were sacrificed and hippocampal sections were double-labeled for TUNEL & NeuN (A). […] Hippocampal extracts of all groups of mice (n=4) were immunoblotted for cleaved caspase 3 (D). Actin was run as loading control. E) Bands were scanned and values (cleaved caspase 3/Actin) are presented as relative to non-Tg control. […] Protein levels of PSD-95. NR2A and GluR1 were monitored in hippocampal extracts by Western blot (F). Bands were scanned and values (G, PSD-95/Actin; H, NR2A/Actin; I, GluR1/Actin) are presented as relative to non-Tg control. […] Mice were tested for Barnes maze (J, latency; K, number of errors made) and T maze (L, number of positive turns; M, number of negative turns). Short-term memory was also monitored by novel object recognition test, which is represented by discrimination index (N). Eight mice (n=8) were used in each group and results were analyzed by one-way ANOVA.
# Maze experiments were performed as described by us (52, 57). Briefly, for Barnes maze, mice were trained for 2 consecutive days followed by examination on day 3. […]
# mice with CIA = assay: Collagen-induced arthritis (CIA) in DBA/1J mice; conditions: 1 mg/kg body wt/d i.p. from 29 dpi
# Excerpt: FIG. 7 (A-V). The wtTIDM, but not mTIDM, peptide protects mice from experimental allergic encephalomyelitis (EAE) and collagen-induced arthritis (CIA). […] Mice (n=6 per group in two independent experiments) were scored daily. […] On 22 dpi, general motor activities were monitored using the Ethovision XT 13.0 Open Field Activity System (Noldus) (B, heat-map images representing overall motor activities; C, distance travelled; D, rearing; E, velocity; F, acceleration) and rotorod (G). Foot print analysis (H, stride length; I, print length; J, sway length; K, toe spread) was also performed, L) CIA was induced in male DBA/1J mice by bovine type II collagen immunization and from 29 dpi, mice were treated with wtTIDM and mTIDM peptides (1 mg/kg body wt/d) via i.p. injection. Mice (n=6 per group in two independent experiments) were scored daily. […] On 60 dpi, general motor activities were monitored by Ethovision System (M, heat-map images representing overall motor activities; N, distance travelled; O, rearing; P, velocity), rotorod (Q) and grip strength (R). Foot print analysis (S, stride length; T, print length; U, sway length; V, toe spread) was also performed. Six mice (n=6 per group) were used in two independent experiments. ap<0.001 & bp<0.05 vs control; cp<0.001 & dp<0.05 vs EAE or CIA by two-sample t-tests.
# FIG. 26 (A-D). Footprint analysis of mice with CIA after treatment with wtTIDM and mTIDM peptides. On the walking track, we applied white paper strips and obtained the footprints of mice of different groups (A, control; B, CIA; C, CIA+wtTIDM; D, CIA+mTIDM) on paper using black ink. A total of 30-40 steps for each group were determined. Four different footprint measurements (SL, PL, SWL, and TS) were calculated in centimeters from the recorded prints of mice. Six mice (n=6 per group) were used in two independent experiments.
# Male DBA/1J mice (8-9 week old) were immunized intradermally at the base of the tail with 100 μg of bovine type II collagen emulsified in […] Freund's Adjuvant and M. tuberculosis H37RA. […]
smiles,measurement,setting,value
"CC[C@H](C)[C@H](NC(=O)[C@H](CCCCN)NC(=O)[C@@H](NC(=O)[C@H](CCC(N)=O)NC(=O)[C@H](CCCNC(=N)N)NC(=O)[C@@H](N)CC(=O)O)[C@@H](C)CC)C(=O)N[C@@H](Cc1c[nH]c2ccccc12)C(=O)N[C@@H](Cc1ccccc1)C(=O)N[C@@H](CCC(N)=O)C(=O)N[C@@H](CC(N)=O)C(=O)N[C@@H](CCCNC(=N)N)C(=O)N[C@@H](CCCNC(=N)N)C(=O)N[C@@H](CCSC)C(=O)N[C@@H](CCCCN)C(=O)N[C@@H](Cc1c[nH]c2ccccc12)C(=O)N[C@@H](CCCCN)C(=O)N[C@@H](CCCCN)C(=O)N1CCC[C@H]1C(=O)NCC(=O)N[C@@H](C)C(=O)N[C@@H](Cc1c[nH]cn1)C(=O)N[C@@H](CCC(N)=O)C(=O)N[C@@H](CCCCN)C(=O)O [wtTIDM, drqikiwfqnrrmkwkkPGAHQK]",phospho-tau in the hippocampus,5×FAD Tg mice [1],suppression
same,total level of tau protein,5×FAD Tg mice [1],without affecting
same,"memory functions in Barnes maze (latency, number of errors)","5×FAD Tg mice [2]; 0.1 mg/kg body wt/2 d intranasal, 30 d",significantly improved
same,spatial learning and memory in Tg mice,5×FAD Tg mice [2]; summary statement,improved
same,clinical symptoms of CIA,mice with CIA,decreased
same,footprint behavior in CIA mice,mice with CIA; 60 dpi,improved
same,locomotor activities in CIA mice,mice with CIA; 60 dpi,enhanced
